Assay results as given in US9283222B2 (priority 2006, dated 2016).
Read-outs that look alike come from different tables or passages of the source.

Molecular target: Recombinant Human Poly(ADP-Ribose) Polymerase (PARP), PARP-1 (Homo sapiens (Human), UniProt P09874)
Details: read-out: PARP-1 (Ki)
[1] = Table 1, text calls the values EC50s

Chain of Recombinant Human Poly(ADP-Ribose) Polymerase (PARP), PARP-1 (P09874 whole entry): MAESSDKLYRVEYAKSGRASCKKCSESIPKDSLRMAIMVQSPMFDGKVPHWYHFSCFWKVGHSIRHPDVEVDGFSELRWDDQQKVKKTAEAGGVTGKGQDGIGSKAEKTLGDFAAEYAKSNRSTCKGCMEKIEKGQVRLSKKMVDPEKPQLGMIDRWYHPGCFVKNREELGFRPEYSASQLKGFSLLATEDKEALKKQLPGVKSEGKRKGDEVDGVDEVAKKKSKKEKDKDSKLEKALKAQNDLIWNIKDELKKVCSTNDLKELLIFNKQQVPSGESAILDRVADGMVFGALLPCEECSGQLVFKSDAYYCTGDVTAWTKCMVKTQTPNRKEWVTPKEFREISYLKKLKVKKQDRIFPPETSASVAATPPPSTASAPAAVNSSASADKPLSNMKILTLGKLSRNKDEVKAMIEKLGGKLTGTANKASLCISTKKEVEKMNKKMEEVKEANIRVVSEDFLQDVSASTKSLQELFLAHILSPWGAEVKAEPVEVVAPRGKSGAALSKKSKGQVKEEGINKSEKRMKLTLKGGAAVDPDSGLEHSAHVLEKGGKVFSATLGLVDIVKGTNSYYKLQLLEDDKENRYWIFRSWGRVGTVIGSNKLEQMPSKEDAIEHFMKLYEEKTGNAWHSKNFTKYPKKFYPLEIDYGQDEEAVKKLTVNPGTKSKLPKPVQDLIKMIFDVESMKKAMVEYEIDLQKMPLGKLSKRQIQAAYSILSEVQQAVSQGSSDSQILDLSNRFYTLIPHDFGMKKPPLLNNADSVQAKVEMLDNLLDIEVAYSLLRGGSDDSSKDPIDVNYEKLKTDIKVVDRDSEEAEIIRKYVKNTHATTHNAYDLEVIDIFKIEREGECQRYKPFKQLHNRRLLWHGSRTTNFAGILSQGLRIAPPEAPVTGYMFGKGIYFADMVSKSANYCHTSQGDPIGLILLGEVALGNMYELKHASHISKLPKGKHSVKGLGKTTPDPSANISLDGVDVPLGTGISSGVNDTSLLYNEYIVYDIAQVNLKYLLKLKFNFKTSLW

SMILES | Ki [1] [nM] | Ki (Table 3, H analogs versus para-F analogs) [nM]
COC(=O)c1cccc(CCc2n[nH]c(=O)c3c2CCCC3)c1 [Example 265, methyl 3-(2-(4-oxo-3,4,5,6,7,8-hexahydrophthalazin-1-yl)ethyl)benzoate] | 58 | 
O=C(NCCc1ccccn1)c1cccc(Cc2n[nH]c(=O)c3c2CCCC3)c1 [Example 379, 3-((4-oxo-3,4,5,6,7,8-hexahydrophthalazin-1-yl)methyl)-N-(2-pyridin-2-ylethyl)benzamide] | 20 | 
CC(C)c1ccccc1NC(=O)c1cccc(Cc2n[nH]c(=O)c3c2CCCC3)c1 [Example 333, N-(2-isopropylphenyl)-3-((4-oxo-3,4,5,6,7,8-hexahydrophthalazin-1-yl)methyl)benzamide] | 892 | 
CCCC(=O)Nc1ccc(Cl)c(Cc2n[nH]c(=O)c3c2CCCC3)c1 [Example 99] | 44 | 
O=C(Nc1ccc2cn[nH]c2c1)c1cccc(Cc2n[nH]c(=O)c3c2CCCC3)c1 [Example 368, N-1H-indazol-6-yl-3-((4-oxo-3,4,5,6,7,8-hexahydrophthalazin-1-yl)methyl)benzamide] | 56 | 
O=c1[nH]nc(Cc2cccc(-c3cccc(CNC4CCC4)c3)c2)c2c1CCCC2 [Example 131, 4-((3′-((cyclobutylamino)methyl)-1,1′-biphenyl-3-yl)methyl)-5,6,7,8-tetrahydrophthalazin-1(2H)-one] | 32 | 
Cc1ccc(C(=O)Nc2cccc(Cc3n[nH]c(=O)c4c3CCCC4)c2)s1 [Example 199, 5-methyl-N-(3-((4-oxo-3,4,5,6,7,8-hexahydrophthalazin-1-yl)methyl)phenyl)thiophene-2-carboxamide] | 196 | 
O=C(NC1CCCCC1)c1cccc(Cc2n[nH]c(=O)c3c2CCCC3)n1 [Example 84, N-cyclohexyl-6-((4-oxo-3,4,5,6,7,8-hexahydrophthalazin-1-yl)methyl)pyridine-2-carboxamide] | 617 | 
O=c1[nH]nc(Cc2cc[n+]([O-])c(Br)c2)c2c1CCCC2 [Example 132, 4-((2-bromo-1-oxidopyridin-4-yl)methyl)-5,6,7,8-tetrahydrophthalazin-1(2H)-one] | 1040 | 
O=C(NC1CCN(C(=O)c2cscn2)CC1)c1cc(Cc2n[nH]c(=O)c3c2NCCC3)ccc1F [Example 731, 2-fluoro-5-[(5-oxo-1,2,3,4,5,6-hexahydropyrido[2,3-d]pyridazin-8-yl)methyl]-N-[1-(1,3-thiazol-4-ylcarbonyl)piperidin-4-yl]benzamide] | 11 | 
CCN(CC)C(=O)C1CCCN(C(=O)c2cccc(Cc3n[nH]c(=O)c4c3CCCC4)c2)C1 (centres unmarked) |  | 27
CC(Cc1n[nH]c(=O)c2c1CCCC2)c1cccc(-c2cccc(C(=O)NCCN(C)C)c2)c1 (centres unmarked) [Example 282, N-(2-(dimethylamino)ethyl)-3′-(1-methyl-2-(4-oxo-3,4,5,6,7,8-hexahydrophthalazin-1-yl)ethyl)-1,1′-biphenyl-3-carboxamide] | 1710 | 
Nc1cc(Cc2n[nH]c(=O)c3c2CCCC3)ccc1O [Example 280, 4-(3-amino-4-hydroxybenzyl)-5,6,7,8-tetrahydrophthalazin-1(2H)-one] | 303 | 
O=C(Nc1cccc(Cc2n[nH]c(=O)c3c2CCCC3)c1)c1ccsc1 [Example 197, N-(3-((4-oxo-3,4,5,6,7,8-hexahydrophthalazin-1-yl)methyl)phenyl)thiophene-3-carboxamide] | 146 | 
COc1ccc(C(=O)CCC(=O)Nc2cccc(Cc3n[nH]c(=O)c4c3CCCC4)c2)cc1 [Example 173, 4-(4-methoxyphenyl)-4-oxo-N-(3-((4-oxo-3,4,5,6,7,8-hexahydrophthalazin-1-yl)methyl)phenyl)butanamide] | 2 | 
COC(=O)c1ncccc1Cc1n[nH]c(=O)c2c1CCCC2 [Example 85, methyl 3-((4-oxo-3,4,5,6,7,8-hexahydrophthalazin-1-yl)methyl)pyridine-2-carboxylate] | 396 | 
CC(=O)N(C)C1CCN(C(=O)c2cc(Cc3n[nH]c(=O)c4c3NCCC4)ccc2F)C1 (centres unmarked) [Example 595, N-(1-{2-fluoro-5-[(5-oxo-1,2,3,4,5,6-hexahydropyrido[2,3-d]pyridazin-8-yl)methyl]benzoyl}pyrrolidine-3-yl)-N-methylacetamide] | 6 | 

Now from value to molecule:

Ki [1] [nM] | Ki (Table 3, H analogs versus para-F analogs) [nM] | SMILES
154 |  | COc1cc(NC(=O)c2cccc(Cc3n[nH]c(=O)c4c3CCCC4)c2)ccc1C [Example 352, N-(3-methoxy-4-methylphenyl)-3-((4-oxo-3,4,5,6,7,8-hexahydrophthalazin-1-yl)methyl)benzamide]
21 |  | O=C(CCS(=O)(=O)c1ccccc1)Nc1cccc(Cc2n[nH]c(=O)c3c2CCCC3)c1 [Example 175, N-(3-((4-oxo-3,4,5,6,7,8-hexahydrophthalazin-1-yl)methyl)phenyl)-3-(phenylsulfonyl)propanamide]
85 |  | C[C@H](NC(=O)Nc1cc(Cc2n[nH]c(=O)c3c2CCCC3)ccc1F)C(=O)O [Example 627, N-[({2-fluoro-5-[(4-oxo-3,4,5,6,7,8-hexahydrophthalazin-1-yl)methyl]phenyl}amino)carbonyl]alanine]
2.4 |  | O=C(c1ccncc1)N1CCCN(C(=O)c2cc(Cc3n[nH]c(=O)c4c3NCCC4)ccc2F)CC1 [Example 682, 8-{4-fluoro-3-[(4-isonicotinoyl-1,4-diazepan-1-yl)carbonyl]benzyl}-2,3,4,6-tetrahydropyrido[2,3-d]pyridazin-5(1H)-one]
1.4 |  | O=C(c1cc(Cc2n[nH]c(=O)c3c2CCCC3)ccc1F)N1CCN(C(=O)[C@@H]2CSCN2)CC1 [Example 727, 4-[4-fluoro-3-({4-[(4R)-1,3-thiazolidin-4-ylcarbonyl]piperazin-1-yl}carbonyl)benzyl]-5,6,7,8-tetrahydrophthalazin-1(2H)-one]
1.7 |  | O=C(c1ccco1)N1CCCN(C(=O)c2cc(Cc3n[nH]c(=O)c4c3NCCC4)ccc2F)CC1 [Example 694, 8-(4-fluoro-3-{[4-(2-furoyl)-1,4-diazepan-1-yl]carbonyl}benzyl)-2,3,4,6-tetrahydropyrido[2,3-d]pyridazin-5(1H)-one]
149 |  | Cc1cc(NC(=O)c2cccc(Cc3n[nH]c(=O)c4c3CCCC4)c2)ccc1Br [Example 345, N-(4-bromo-3-methylphenyl)-3-((4-oxo-3,4,5,6,7,8-hexahydrophthalazin-1-yl)methyl)benzamide]
662 |  | O=C(c1cccc(-c2cc(CCc3n[nH]c(=O)c4c3CCCC4)ccc2F)c1)N1CCOCC1 [Example 264, 4-(2-(6-fluoro-3′-(morpholin-4-ylcarbonyl)-1,1′-biphenyl-3-yl)ethyl)-5,6,7,8-tetrahydrophthalazin-1(2H)-one]
4 |  | CN(C)CCN1CCN(C(=O)c2cc(Cc3n[nH]c(=O)c4c3CCCC4)ccc2F)CC1 [Example 501, 4-[3-({4-[2-(dimethylamino)ethyl]piperazin-1-yl}carbonyl)-4-fluorobenzyl]-5,6,7,8-tetrahydrophthalazin-1(2H)-one]
3 |  | O=C(c1cc(Cc2n[nH]c(=O)c3c2CCCC3)ccc1F)N1CCN(c2ccccc2)CC1 [Example 515, 4-{4-fluoro-3-[(4-phenylpiperazin-1-yl)carbonyl]benzyl}-5,6,7,8-tetrahydrophthalazin-1(2H)-one]
1 |  | CCN(CCNC(=O)c1cccnc1)C(=O)c1cc(Cc2n[nH]c(=O)c3c2CCCC3)ccc1F [Example 763, N-[2-(ethyl{2-fluoro-5-[(4-oxo-3,4,5,6,7,8-hexahydrophthalazin-1-yl)methyl]benzoyl}amino)ethyl]nicotinamide]
96 |  | O=C(Nc1cccc(Cc2n[nH]c(=O)c3c2CCCC3)c1)c1cccc2ccccc12 [Example 230, N-(3-((4-oxo-3,4,5,6,7,8-hexahydrophthalazin-1-yl)methyl)phenyl)-1-naphthamide]
2.2 |  | COc1ccc(S(=O)(=O)N2CCN(C(=O)c3cc(Cc4n[nH]c(=O)c5c4CCCC5)ccc3F)CC2)cc1 [Example 620, 4-[4-fluoro-3-({4-[(4-methoxyphenyl)sulfonyl]piperazin-1-yl}carbonyl)benzyl]-5,6,7,8-tetrahydrophthalazin-1(2H)-one]
40 |  | COc1ccc(CCNC(=O)c2cccc(Cc3n[nH]c(=O)c4c3CCCC4)c2)cc1 [Example 384, N-(2-(4-methoxyphenyl)ethyl)-3-((4-oxo-3,4,5,6,7,8-hexahydrophthalazin-1-yl)methyl)benzamide]
92 |  | O=C(Nc1cccc(Cc2n[nH]c(=O)c3c2CCCC3)c1)c1cc(Br)ccc1Cl [Example 243, 5-bromo-2-chloro-N-(3-((4-oxo-3,4,5,6,7,8-hexahydrophthalazin-1-yl)methyl)phenyl)benzamide]
1.9 |  | O=C(c1cc(Cc2n[nH]c(=O)c3c2CCCC3)ccc1F)N1CCN(C(=O)N2CCCCC2)CC1 [Example 495, 4-(4-fluoro-3-{[4-(piperidin-1-ylcarbonyl)piperazin-1-yl]carbonyl}benzyl)-5,6,7,8-tetrahydrophthalazin-1(2H)-one]
2 |  | O=C(c1cc(Cc2n[nH]c(=O)c3c2CCCC3)ccc1F)N1CCN(C(=O)N2CCOCC2)CC1 [Example 533, 4-(4-fluoro-3-{[4-(morpholin-4-ylcarbonyl)piperazin-1-yl]carbonyl}benzyl)-5,6,7,8-tetrahydrophthalazin-1(2H)-one]
110 |  | O=C(Nc1cccc(Cc2n[nH]c(=O)c3c2CCCC3)c1)c1ccc2ccccc2c1 [Example 231, N-(3-((4-oxo-3,4,5,6,7,8-hexahydrophthalazin-1-yl)methyl)phenyl)-2-naphthamide]
1050 |  | O=C(c1cccc(-c2cc(CCc3n[nH]c(=O)c4c3CCCC4)ccc2F)c1)N1CCCC1 [Example 269, 4-(2-(6-fluoro-3′-(pyrrolidin-1-ylcarbonyl)-1,1′-biphenyl-3-yl)ethyl)-5,6,7,8-tetrahydrophthalazin-1(2H)-one]
1.5 |  | O=C(c1ccc2ccccc2n1)N1CCN(C(=O)c2cc(Cc3n[nH]c(=O)c4c3NCCC4)ccc2F)CC1 [Example 645]
3 |  | O=C(c1cc(Cc2n[nH]c(=O)c3c2NCCC3)ccc1F)N1CCC(O)CC1 [Example 572, 8-{4-fluoro-3-[(4-hydroxypiperidin-1-yl)carbonyl]benzyl}-2,3,4,6-tetrahydropyrido[2,3-d]pyridazin-5(1H)-one]
